From patent US9629843B2, “MTOR modulators and uses thereof” (The Regents of the University of California, priority 2008, dated 2017)
“Also recorded” adds a separate entry of the source.

Experiments:
[1] = test system: S6K, S6, 4EBP1 phosphorylation in L6 myotubes; test: Phosphorylation of S6K, S6 and 4EBP1 in insulin stimulated L6 myotubes; format: cell-based
SGK1 pS422 = test: HM (pS422) phosphorylation of flag-tagged SGK1 in HEK293 cells; format: cell-based, Human; details: insulin, FIG. 28C
[2] = Genetic toxicology (mini-Ames test)
[3] = test system: ENaC-dependent Na+ current; test: ENaC-dependent Na+ transport in mpkCCD cells
[4] = test system: Akt phosphorylation (S473, T308) in L6 myotubes; test: Akt phosphorylation in insulin stimulated L6 myotubes (immunoblot); format: cell-based; details: 100 nM insulin, FIG. 3
Method: L6 myoblasts were grown typically grown in DMEM supplemented with about 10% FBS, glutamine and penicillin/streptomycin. Confluent L6 myoblasts were differentiated into mytubes by culturing them for approximately 5 days in media containing about 2% FBS. L6 myotubes were maintained in media containing approximately 2% FBS until use.
In order to compare the effect of TORKinibs and PIK-90 on Akt phosphorylation, L6 myotubes were serum starved overnight and incubated with inhibitors or about 0.1% DMSO for approximately 30 minutes prior to stimulation with insulin (e.g. 100 nM) for about 10 minutes. Cells were lysed by scraping into ice cold lysis buffer (generally: 300 mM NaCl, 50 mM Tris pH 7.5, 5 mM EDTA, 1% TRITON™ X-100, 0.02% NaN3, 20 nM microcystin, Sigma phosphatase inhibitor cocktails 1 and 2, Roche protease inhibitor cocktail and 2 mM PMSF). After contacting cells with lysis buffer, the solution was briefly sonicated. Lysates were cleared by centrifugation, resolved by SDS-PAGE, transferred to nitrocellulose and immunoblotted using antibodies to phospho-Akt S473, phospho-Akt T308, Akt, and β-actin (Cell Signaling Technologies).

[5] = test system: p70S6K, 4EBP1 phosphorylation in MEFs; test: Phosphorylation of 70S6K and 4EBP1 in mouse embryonic fibroblasts; format: cell-based; details: wild-type and SIN1−/− MEFs; FIG. 11
Method: Wild-type and SIN1−/− primary mouse embryonic fibroblasts (MEFs) were grown in DMEM supplemented with about 10% FBS, glutamine and penicillin/streptomycin. MEFs were treated with TORKinib at approximately 2.5, 0.63, and 0.16 uM; rapamycin at about 15 nM; or PIK-90 at about 625 nM for approximately 30 minutes prior to insulin stimulation (e.g. 100 nM) for about 10 minutes. Cells were lysed by scraping into ice cold lysis buffer (generally: 300 mM NaCl, 50 mM Tris pH 7.5, 5 mM EDTA, 1% TRITON™ X-100, 0.02% NaN3, 20 nM microcystin, Sigma phosphatase inhibitor cocktails 1 and 2, Roche protease inhibitor cocktail and 2 mM PMSF). After contacting cells with lysis buffer, the solution was briefly sonicated. Lysates were cleared by centrifugation, resolved by SDS-PAGE, transferred to nitrocellulose and immunoblotted using antibodies to phospho-p70S6K T389, phospho-4EBP1 T37/46, phospho-4EBP1 S65, and β-actin (Cell Signaling Technologies).

[6] = test system: myristolated-Akt transgenic thymocytes tumors; test: Akt murine allograft tumor model; format: in vivo, NOD/SCID mice
[7] = Pharmacokinetics of PP242; details: in vivo
4EBP1 binding to eIF-4E = test: m7GTP cap pull-down assay in L6 myotubes; format: cell-based; details: insulin stimulated L6 myotubes; FIG. 10
[8] = test system: Akt, S6, 4EBP1 phosphorylation in tissues; test: In vivo effect on insulin signaling in fat, skeletal muscle and liver of mice; design: species or system C57BL/6 mice
[9] = Metabolic stability in microsome and cellular assays; format: in vitro ADME
SGK1 phosphorylation = SGK1 phosphorylation in mpkCCD cells (mobility shift immunoblot); format: cell-based; details: at a concentration of 0.3 μM
[10] = test system: Akt phosphorylation (S473, T308) in MEFs; test: Akt phosphorylation in wild-type and SIN1−/− mouse embryonic fibroblasts (immunoblot); format: cell-based
Method: Wild-type and SIN1−/− primary mouse embryonic fibroblasts (MEFs) were grown in DMEM supplemented with about 10% FBS, glutamine and penicillin/streptomycin. MEFs were treated with TORKinib at about 2.5, 0.63, and 0.16 uM; rapamycin at approximately 15 nM; or PIK-90 at 625 nM for 30 minutes prior to insulin stimulation (e.g. 100 nM) for 10 minutes. Cells were lysed by scraping into ice cold lysis buffer (typically 300 mM NaCl, 50 mM Tris pH 7.5, 5 mM EDTA, 1% TRITON™ X-100, 0.02% NaN3, 20 nM microcystin, Sigma phosphatase inhibitor cocktails 1 and 2, Roche protease inhibitor cocktail and 2 mM PMSF). After contacting cells with lysis buffer, the solution was briefly sonicated. Lysates were cleared by centrifugation, resolved by SDS-PAGE, transferred to nitrocellulose and immunoblotted using antibodies to phospho-Akt S473, phospho-Akt T308, Akt, and β-actin (Cell Signaling Technologies).

Tolerability in rats = format: in vivo; details: 10, 30 or 100 mg/kg, four times or twice daily, p.o.
[11] = test system: ENaC-dependent Na+ current
p70S6K phosphorylation = p70S6K phosphorylation in mpkCCD cells; format: cell-based
[12] = test system: cap-dependent translation; test: Cap-dependent translation, m7GTP affinity, p190 cells; format: cell-based; details: IM at 5 μM; FIG. 38D
[13] = test system: Akt substrates (GSK3, TSC2, FoxO1/O3a) in L6 myotubes; test: Phosphorylation of Akt substrates in insulin stimulated L6 myotubes; format: cell-based; details: FIG. 6
Tolerability in mice = format: in vivo; details: 10, 30 or 100 mg/kg, four times or twice daily, p.o.
[14] = test system: mTORC2/AKT and mTORC1 signaling; test: mTORC2/AKT and mTORC1 signaling in p190 cells (western blot); format: cell-based; details: FIGS. 38A-38B
Method: Western blots of p190 cells treated for 1.5 hr (a) or 3 hr (b) with indicated inhibitors are depicted in FIG. 38A and FIG. 38B. […] Clinically achievable concentrations of IM (1.0 μM) and DA (100 nM) were used for the combination treatments. See also FIGS. 40A-40B. Activation of PI3K was quantified in cells by signal pixel intensity and localized area of PIP3 accumulation by confocal microscopy, as depicted in FIG. 38C. […] A minimum of 250 cells was quantified from 2 separate images. […] Representative images depict PIP3 accumulation, nuclear content (DAPI stain) merged onto DIC images (13.5 μm scale bar). […] Autophagy (LC3 puncta accumulation), loss of proliferation (EdU accumulation), and distinct localization patterns of Foxo1 were assessed by confocal microscopy and representative cells were magnified for clarity. Cytoplasmic localization of Foxo1 corresponds to AKT activation, whereas nuclear accumulation signifies AKT inhibition.

[15] = test system: PI3K signaling (PIP3 accumulation); test: PIP3 accumulation in p190 cells by confocal microscopy; format: cell-based; details: 20 and 200 nM, 4 hr; FIG. 38C
[16] = test system: Akt-S473 and S6 phosphorylation in T cells; test: Phosflow of anti-CD3 stimulated murine splenocytes; format: cell-based

CC(C)n1nc(-c2cc3cc(O)ccc3[nH]2)c2c(N)ncnc21 [PP242]
phosphorylation of 4EBP1 at S65 [1]: fully inhibits | phosphorylation of 4EBP1 at T70 [1]: neither rapamycin nor TORKinib affect | phosphorylation of 4EBP1 at T37/46 ([1]; listed as TORKinib): fully inhibits; also recorded: able to inhibit | pS422-SGK1 band (SGK1 pS422): abrogated | genetic toxicology (mini-Ames test) [2]: clean profile | T1/2 of effect on Na+ current ([3]; FIG. 29B): approximately 15 minutes | amiloride-sensitive Na+ current ([3]; at a concentration of 0.3 μM): completely abolished | aldosterone-induced Na+ current ([3]; mpkCCD cells): completely blocked aldosterone-induced current | insulin stimulated phosphorylation of Akt at S473 and T308 [4]: inhibit insulin stimulated phosphorylation of Akt at S473 | phosphorylation of p70S6K and 4EBP1 [5]: more complete inhibitor of 4EBP1 phosphorylation under the conditions tested than rapamycin | tumor growth ([6]; PP242 100 mg/kg, rapamycin 5 mg/kg, gavage daily, 20 days): no tumor growth | body weight ([6]; after 20 days of treatment): maintained body weight | clearance [7]: moderate | volume of distribution [7]: good | oral bioavailability (F %) ([7]; po): 30-70% | retention of 4EBP1 on eIF-4E (m7GTP pull-down) (4EBP1 binding to eIF-4E): caused a greater retention of 4EBP1 | S6 phosphorylation ([8]; all tissues examined): equally inhibited | phosphorylation of 4EBP1 on T37/46 and S65 ([8]; all tissues examined): effective at blocking | phosphorylation of Akt at S473 and T308 ([8]; fat and liver, i.p., insulin stimulated mice): completely inhibit | phosphorylation of Akt ([8]; skeletal muscle): only partially able to inhibit | metabolic stability [9]: metabolically stable | phosphorylation of SGK1 (SGK1 phosphorylation): completely abolished | phosphorylation of Akt T308 ([10]; SIN1−/− MEFs): has no effect | phosphorylation of Akt at S473 and T308 ([10]; wild-type MEFs): inhibits the phosphorylation of Akt at both S473 and T308 | tolerability (Tolerability in rats): tolerated | toxic effect of prolonged treatment [11]: diminishes electrical resistance and causes morphological changes | p70S6K phosphorylation (p70S6K phosphorylation): eliminated the band detected by anti-phospho p70S6K antibody | cap-dependent translation [12]: inhibit cap-dependent translation | phosphorylation of Akt and its substrates [13]: partially inhibited | tolerability (Tolerability in mice): tolerated | mTORC2/AKT and mTORC1 signaling in B-ALL [14]: completely inhibits mTORC2/AKT and mTORC1 signaling | PI3K signaling (PIP3 accumulation) [15]: had no significant effect | anti-CD3 mediated phosphorylation of Akt-S473 [16]: inhibits | anti-CD3 mediated phosphorylation of S6 [16]: inhibits
